Experimental data from patent US20210162050A1, “TOPICAL FORMULATIONS BASED ON IONIC SPECIES FOR SKIN TREATMENT” (The Regents of the University of California, priority 2016, published 2021).

Experiments:
HEKa cells = experiment: Biocompatibility in cell culture, MTT Cell Proliferation Assay; format: cell-based, human; settings: equal concentrations, 4 hours; differences not statistically significant (p >0.05)
Description: All cell culture materials were acquired from Life Technologies (Grand Island, N.Y.). Human adult epidermal keratinocytes were cultured in EpiLife Medium supplemented with Human Keratinocyte Growth Supplement, 25 U/mL penicillin, 25 μg/mL streptomycin, and 50 μg/mL neomycin. Cultures were grown at 37° C. with 5% CO2.
Cells were seeded in a 96-well microplate (Corning Inc., Corning, N.Y.) and were allowed to attach and proliferate. Once cells reached ˜80% confluency, the media was removed and FAM-siRNA, robed-FAM-siRNA, or benzyl dimethyl alkyl ammonium chloride salts in media was added. Media alone was used as a control. Cells were incubated with test solution for 4 hours at 37° C. and 5% CO2. After incubation, test solutions were removed, cells were washed with HBSS, and fresh media was added to each well. Cells were allowed to proliferate overnight before being assessed for viability using the MTT Cell Proliferation Assay (ATCC, Manassas, Va.). Viability was determined according to the manufacturer's recommended protocol using a SAFIRE, XFLUOR4, V4.50 microplate reader (Tecan Group Ltd, Morrisville, N.Y.).

[1] = Octanol-water partitioning coefficients of cation paired hyaluronic acid (HA); format: physicochemical; settings: cation paired with HA
Description: 5 mL ddH2O may be mixed overnight at room temperature with 5 mL octanol. A complex containing a macromolecular anion complexed with sodium ions or with cations with alkyl chains is then added to the mixture and again allowed to mix overnight at room temperature in the dark. After overnight incubation, the solution is centrifuged to separate the octanol layer and water layer. The concentration of the macromolecular anion present in each layer is quantified by UV-Vis spectroscopy, or fluorescence spectroscopy, using, for example, a SAFIRE, XFLUOR4, V4.50 microplate reader (Tecan Group Ltd, Morrisville, N.Y.). For detection of siRNA, the fluorescence detection may be performed at an excitation of 485 nm and an emission of 520 nm, and the method may be validated for linearity, accuracy, and precision. Log Po/w may be calculated as the logarithm of the ratio of fluorescence in the octanol layer compared to the water layer.
Cation paired HA was prepared according to methods described in Example 1.

[2] = chloride salt; Hansch et al. 1995; cited from earlier work

SMILES	toxicity of free salts versus robed with siRNAs (HEKa cells)	LogPo/w [1]	Log Po/w, Chloride [2]
CCCCCCCC[N+](C)(C)Cc1ccccc1 [BDOA chloride, benzyl dimethyl octyl ammonium]	more toxic as free salts	–	–
C[N+](C)(C)CCO	–	−3.32	–
CCCCCCCCCCCCCC[N+](C)(C)Cc1ccccc1 [BDTA chloride, benzyl dimethyl tetradecyl ammonium]	more toxic as free salts	–	1.81^2
CCCCCCCCCCCCCC[N+](C)(C)C.[Br-]	–	2.14	–
CCCCCCCCCCCCCCCCCC[N+](C)(C)Cc1ccccc1 [BDSA chloride, benzyl dimethyl stearyl ammonium]	more toxic as free salts	–	3.23^3
